Assay results reported in publication PMC10818931, “In Vitro Evaluation of Drug–Drug Interaction Potential of Epetraborole, a Novel Bacterial Leucyl-tRNA Synthetase Inhibitor” (Pharmaceuticals, 2024).
≈ marks a conversion by molar mass, not a printed value. Where two headings read alike, the source gives them in different places.

What was measured:
MATE1 = target: T1, MATE1 (Homo sapiens, UniProt Q96FL8); experiment: Transporter inhibition; format: in vitro ADME; settings: read-out: as an Inhibitor, IC50
T1 construct: host or cells: MDCK
T1 sequence (Q96FL8 1-570): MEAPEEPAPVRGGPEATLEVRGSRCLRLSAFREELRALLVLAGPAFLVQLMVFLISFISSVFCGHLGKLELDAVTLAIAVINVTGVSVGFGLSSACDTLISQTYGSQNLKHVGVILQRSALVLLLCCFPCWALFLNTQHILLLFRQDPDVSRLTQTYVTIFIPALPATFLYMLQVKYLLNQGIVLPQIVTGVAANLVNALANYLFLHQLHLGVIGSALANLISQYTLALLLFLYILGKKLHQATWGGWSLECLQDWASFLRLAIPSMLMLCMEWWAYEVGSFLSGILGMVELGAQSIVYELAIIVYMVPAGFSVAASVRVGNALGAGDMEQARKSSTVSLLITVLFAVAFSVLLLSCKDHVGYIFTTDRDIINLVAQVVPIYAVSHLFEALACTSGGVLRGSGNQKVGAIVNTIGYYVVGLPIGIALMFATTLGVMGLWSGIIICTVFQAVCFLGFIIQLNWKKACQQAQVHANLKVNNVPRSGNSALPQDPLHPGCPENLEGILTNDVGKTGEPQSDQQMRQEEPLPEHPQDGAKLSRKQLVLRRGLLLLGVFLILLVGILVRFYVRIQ

[1] = Solubility in transport buffer; format: physicochemical; settings: aqueous buffer, read-out: Soluble up to
[2] = test system: HEK 293 or MDCK cell lines; experiment: Cytotoxicity in transporter inhibition studies; format: cell-based; settings: at the concentrations tested in transporter inhibition studies
CYP1A2 = experiment: CYP inhibition (direct and metabolism-dependent) in human hepatic microsomes; format: in vitro ADME; settings: for MDI IC50 Fold Change: metabolism-dependent inhibition; for IC50: pH 7.4, EBO 0.03–100 μM, M3 1–1000 µM, read-out: as an Inhibitor IC50
Experimental: (§1) The direct inhibitory potential of EBO on cytochrome P450 activities O-deethylase (CYP1A2), bupropion hydroxylase (CYP2B6), amodiaquine N-deethylase (CYP2C8), diclofenac 4′-hydroxylase (CYP2C9), S-mephenytoin 4′-hydroxylase (CYP2C19), bufuralol 1′-hydroxylase (CYP2D6), chlorzoxazone 6-hydroxylase (CYP2E1), testosterone 6β-hydroxylase (CYP3A), and midazolam 1′-hydroxylase (CYP3A) was assessed in vitro using human hepatic microsomes according to Covance Laboratory (Madison, WI, USA) SOP. A single substrate concentration was used, approximating the concentration of substrate that gives half the maximum reaction velocity (Km) for human hepatic microsomes for each cytochrome P450 activity. […] All sample and control incubations were performed in triplicate and were analyzed by LC-MS/MS. Incubation mixtures contained microsomal protein and substrate in a 0.1 M potassium phosphate buffer (pH 7.4) containing 1 mM EDTA (assay buffer). […] Incubations were terminated by the addition of 100 µL of an internal standard solution followed by vortex mixing. Protein was removed by centrifugation at 1500× g for 5 min at 4 °C, and supernatants were transferred to a separate plate and stored at 4 °C prior to LC-MS/MS analysis. The analyte for each activity assay was quantitated by comparison to a linear curve of an authentic standard prepared using human microsomal protein. […] Incubations were performed at substrate concentrations approximating the average Km values. […] For determination of control activities, NADPH was added after the addition of each substrate. Samples were then processed as previously described. […] Two sets of duplicate incubations were prepared (cofactor preincubation [50 µL] and control preincubation [50 µL]) with each concentration of M3. All incubations contained a final microsomal protein concentration of 0.1 mg/mL. In this study, M3 and microsomes were preincubated with cofactor for 20 min prior to initiation of reaction by addition of probe substrate. The corresponding control incubations were designed to provide a preincubation without cofactor while incorporating the 20 min preincubation of M3 with microsomes to ensure consistent equilibration of M3 in both control and cofactor preincubations. The control preincubations were therefore performed for 20 min with M3, microsomes, and probe substrate, and the reaction was initiated by the addition of a cofactor solution. […] Incubations without cofactor (at the highest concentration of M3) were performed to determine any cofactor-independent substrate metabolism formation. Probe substrate concentrations were determined by LC/MS/MS methods.

CYP2C8 = target: T2, CYP2C8 (Homo sapiens, UniProt P10632); experiment: as above; format: in vitro ADME; settings: for MDI IC50 Fold Change: metabolism-dependent inhibition; for IC50: read-out: as an Inhibitor IC50
T2 construct: tissue CellzDirect; XenoTech LLC; host or cells: pooled human liver microsomes
T2 sequence (P10632 1-490): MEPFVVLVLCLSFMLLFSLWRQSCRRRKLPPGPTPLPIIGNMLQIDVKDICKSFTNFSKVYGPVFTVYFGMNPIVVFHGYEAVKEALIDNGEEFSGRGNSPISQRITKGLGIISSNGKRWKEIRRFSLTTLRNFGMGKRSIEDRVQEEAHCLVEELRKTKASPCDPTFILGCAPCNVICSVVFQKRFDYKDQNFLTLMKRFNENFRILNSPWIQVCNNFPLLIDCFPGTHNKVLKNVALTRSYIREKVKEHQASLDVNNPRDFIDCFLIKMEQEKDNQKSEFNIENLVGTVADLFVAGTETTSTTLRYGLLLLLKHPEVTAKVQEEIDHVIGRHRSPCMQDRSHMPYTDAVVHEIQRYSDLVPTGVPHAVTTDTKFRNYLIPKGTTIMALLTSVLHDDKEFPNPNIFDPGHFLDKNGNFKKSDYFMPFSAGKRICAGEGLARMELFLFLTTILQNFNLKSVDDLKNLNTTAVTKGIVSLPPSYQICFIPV
Experimental: as §1

CYP2C9 = target: T3, CYP2C9 (Homo sapiens, UniProt P11712); experiment: as above; format: in vitro ADME; settings: for MDI IC50 Fold Change: metabolism-dependent inhibition; for IC50: read-out: as an Inhibitor IC50
T3 construct: tissue CellzDirect; XenoTech LLC; host or cells: pooled human liver microsomes
Experimental: as §1

CYP2D6 = target: T4, CYP2D6 (Homo sapiens, UniProt P10635); experiment: as above; format: in vitro ADME; settings: for MDI IC50 Fold Change: metabolism-dependent inhibition; for IC50: read-out: as an Inhibitor IC50
T4 construct: Characterized, pooled, human hepatic microsomes from 15 individuals; tissue CellzDirect (Durham, NC, USA) or XenoTech LLC (Lenexa, KS, USA); host or cells: pooled human liver microsomes (15 donors)
Experimental: as §1

CYP3A4/5 = experiment: as above; format: in vitro ADME; settings: for MDI IC50 Fold Change: metabolism-dependent inhibition; for IC50: read-out: as an Inhibitor IC50
Experimental: as §1

CYP3A4 = experiment: as above; format: in vitro ADME; settings: for MDI IC50 Fold Change / IC50: CYP3A4 (Testosterone); for MDI IC50 Fold Change: metabolism-dependent inhibition; for IC50: human, read-out: as an Inhibitor IC50
Experimental: as §1

T4 sequence (P10635 whole entry): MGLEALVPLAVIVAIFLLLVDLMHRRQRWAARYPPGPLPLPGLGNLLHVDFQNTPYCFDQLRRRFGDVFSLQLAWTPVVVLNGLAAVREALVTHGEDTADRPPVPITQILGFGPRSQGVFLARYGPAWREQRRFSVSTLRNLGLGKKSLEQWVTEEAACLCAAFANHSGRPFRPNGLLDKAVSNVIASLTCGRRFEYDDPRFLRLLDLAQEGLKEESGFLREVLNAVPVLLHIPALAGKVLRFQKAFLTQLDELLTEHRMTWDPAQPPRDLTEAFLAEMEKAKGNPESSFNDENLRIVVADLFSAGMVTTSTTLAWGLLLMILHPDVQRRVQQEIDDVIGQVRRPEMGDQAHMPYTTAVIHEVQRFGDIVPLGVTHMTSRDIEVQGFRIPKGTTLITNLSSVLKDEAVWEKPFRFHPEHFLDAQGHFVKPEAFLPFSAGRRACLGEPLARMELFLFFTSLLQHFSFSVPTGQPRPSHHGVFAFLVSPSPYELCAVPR
T3 sequence (P11712 whole entry): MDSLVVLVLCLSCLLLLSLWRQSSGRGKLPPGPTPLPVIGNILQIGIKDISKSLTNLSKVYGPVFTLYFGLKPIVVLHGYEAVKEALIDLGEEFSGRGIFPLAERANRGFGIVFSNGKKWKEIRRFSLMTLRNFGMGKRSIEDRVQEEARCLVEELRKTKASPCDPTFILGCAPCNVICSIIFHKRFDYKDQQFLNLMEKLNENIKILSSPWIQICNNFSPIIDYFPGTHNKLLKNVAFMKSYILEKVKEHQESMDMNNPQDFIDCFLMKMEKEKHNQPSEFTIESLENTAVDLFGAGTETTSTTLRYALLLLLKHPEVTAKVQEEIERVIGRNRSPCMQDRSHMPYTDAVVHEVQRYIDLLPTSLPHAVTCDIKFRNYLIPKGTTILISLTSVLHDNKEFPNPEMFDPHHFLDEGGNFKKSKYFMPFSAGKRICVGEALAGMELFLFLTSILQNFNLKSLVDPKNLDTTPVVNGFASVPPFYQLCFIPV

SMILES	IC50 (MATE1)	solubility ([1]; transport buffer pH 7.4)	solubility ([1]; transport buffer pH 8.5)	Cytotoxicity [2]	MDI IC50 Fold Change (CYP1A2; CYP1A2)	MDI IC50 Fold Change (CYP2C8)	IC50 (CYP2C8)	MDI IC50 Fold Change (CYP2C9)	IC50 (CYP2C9)	MDI IC50 Fold Change (CYP2D6)	IC50 (CYP2D6)	MDI IC50 Fold Change (CYP3A4/5; CYP3A4/5 (Midazolam))	MDI IC50 Fold Change (CYP3A4)	also measured
NC[C@H]1OB(O)c2c(OCCCO)cccc21 [EBO, Epetraborole]	> 100 µM	17000 µM (≈ 4030 µg/mL)	100 µM (≈ 23.7 µg/mL)	Neither EBO nor M3 induced any cytotoxicity	No	No	> 100 µM	No	> 100 µM	No	> 100 µM	No	No	inhibition at 100 µM (CYP1A2; human, human hepatic microsomes, pH 7.4, highest concentration tested (100 µM), read-out: Decrease of CYP1A2 activity (inhibition)): ~30%; IC50 (CYP1A2; human, human liver microsomes, CYP1A2): > 100 µM; Percentage of CYP1A2 activity remaining (CYP1A2; preincubation with EBO in the absence of NADPH): 72.4%; Percentage of CYP1A2 activity remaining (CYP1A2; preincubation with EBO in the presence of NADPH): 81.7%; IC50 (CYP3A4/5; human, human hepatic (liver) microsomes, pH 7.4, probe midazolam (1′-hydroxylation), CYP3A4/5 (Midazolam)): > 100 µM; IC50 (CYP3A4; human hepatic (liver) microsomes, pH 7.4, probe testosterone (6β-hydroxylation)): > 100 µM
NC[C@H]1OB(O)c2c(OCCC(=O)O)cccc21 [M3]	> 250 µM	250 µM (≈ 62.8 µg/mL)	250 µM (≈ 62.8 µg/mL)	Neither EBO nor M3 induced any cytotoxicity	No	No	> 1000 µM	No	> 1000 µM	No	> 1000 µM	No	No	Direct or time-dependent inhibitory activity (in words) (CYP1A2; CYP1A2): No direct or time-dependent inhibitory activity; IC50 (CYP1A2; human, microsomes, CYP1A2): > 1000 µM; Direct or time-dependent inhibitory activity (in words) (CYP2C8): No direct or time-dependent inhibitory activity; Direct or time-dependent inhibitory activity (in words) (CYP2C9): No direct or time-dependent inhibitory activity; Direct or time-dependent inhibitory activity (in words) (CYP2D6): No direct or time-dependent inhibitory activity; MDI IC50 Fold Change (CYP3A4/5; CYP3A4/5 (Atorvastatin)): No; IC50 (CYP3A4/5; CYP3A4/5 (Atorvastatin)): > 1000 µM; IC50 (CYP3A4/5; human, microsomes, pH 7.4, CYP3A4/5 (Midazolam)): > 1000 µM; Direct or time-dependent inhibitory activity (in words) (CYP3A4; CYP3A4): No direct or time-dependent inhibitory activity; IC50 (CYP3A4; microsomes, pH 7.4): > 1000 µM
